Reference: patent US20060122153A1, “Antineoplastic ether lipid compounds with modifications at the sn-2 carbon” (priority 2003, published 2006)
“And” between values parts separate entries of the source, which are not always exact repeats. Identical values can stand only once.

Legend:
[1] = tested on: washed human red blood cells; assay: Hemolysis assay with washed human red blood cells; type: cell-based; conditions: washed human RBCs; for H10: concentration producing 10% hemolysis; for H50: concentration producing 50% hemolysis
Method: The blood was transferred from 1 EDTA tube to a 50 mL conical tissue culture tube and the volume was brought up to 50 mL with PBS.
The blood was centrifuged for 10 minutes at 1500 RPM. The supernatant was removed and the blood was resuspended up to 50 mL with PBS. Next the blood was centrifuged for 10 minutes at 1500 RPM.
The supernatant was removed, and 2.0 mL of packed red blood cells was carefully transferred, using positive displacement pipet, into a fresh conical tissue culture tube. Next, 48 mL PBS was added to achieve a 4% washed RBC solution.
Next, 25, 50, 100 and 200 uM stock solutions of test sample in phosphate buffered saline (PBS) as follows:
Next, 0.5 mL of 4% washed RBC was added to 0.5 mL test sample dilutions (in duplicate). The final concentration of test sample was 50% of working stock solution.
The samples were capped or sealed with Parafilm and the samples were gently mixed. […] The samples were centrifuged for 10 minutes at 1500 RPM. […] Absorbance was measured at 550 nm vs. a water blank. Next, H10 and H50 were determined by graphing Absorbance vs. Test Sample Concentration.

MALME-3M = assay: NCI growth inhibition screen, melanoma panel; type: cell-based, human; parameters: key to Performance as compared to ET-18-O—CH3: = means equivalent activity; + means that it appears to be significantly better (i.e., by ˜2x); < means it appears to be less active than ET18OCH3 (˜2x); a combination like =/+ or </+ means that activity is dependent upon the isomer; a combination like =/+ or </+ means that activity is dependent upon the isomer; conditions: for Performance as compared to ET-18-O—CH3: MALME-3M, Melanoma, from GI50s; for activity compared to ET-18-OCH3 (in words): melanoma MALME-3M cell line, NCI screen
Method: (§1) Candidates deemed suitable for in vivo testing were then synthesized in large scale quantities and some of this material was sent to the NCI's Developmental Therapeutics Program for a battery of growth inhibitory studies against various human tumor cell lines (60 cell lines, 9 different panels). The remainder of the material was used to assess in vivo efficacy using murine tumor models. Additionally, studies were conducted on the lead candidates to discern mechanism of action with particular emphasis on these agents apoptotic ability as measured by caspase 3 activity. The details (materials and methods) for these various assays are described further in the following discussion.
(§2) Ten compounds were also sent to NCI's Drug Discovery Program for screening against numerous human tumor cell lines (9 panels total: renal ovarian, colon, CNS, non-small cell lung, leukemia, breast, melanoma, and prostate). The data are shown in FIGS. 2a-i which also include data regarding D- and L-ET-18-OCH3 (listed as L-EL and D-EL in the figures). Upon examining the data, one is struck by how 1R and 1a′S standout in comparison to the other compounds, especially for the renal, ovarian, colon, and CNS panels.

SN12C = assay: NCI growth inhibition screen, renal panel; type: cell-based, human; parameters: key: = means equivalent activity; + means that it appears to be significantly better (i.e., by ˜2x); < means it appears to be less active than ET18OCH3 (˜2x); a combination like =/+ or </+ means that activity is dependent upon the isomer; a combination like =/+ or </+ means that activity is dependent upon the isomer; conditions: from GI50s
Method: as §1, §2

ACHIN = assay: NCI growth inhibition screen, renal panel; type: cell-based, human; parameters: key: = means equivalent activity; + means that it appears to be significantly better (i.e., by ˜2x); < means it appears to be less active than ET18OCH3 (˜2x); a combination like =/+ or </+ means that activity is dependent upon the isomer; a combination like =/+ or </+ means that activity is dependent upon the isomer; conditions: from GI50s
Method: as §1, §2

786-0 = assay: NCI growth inhibition screen, renal panel; type: cell-based, human; parameters: key: = means equivalent activity; + means that it appears to be significantly better (i.e., by ˜2x); < means it appears to be less active than ET18OCH3 (˜2x); a combination like =/+ or </+ means that activity is dependent upon the isomer; a combination like =/+ or </+ means that activity is dependent upon the isomer; conditions: 786-0, Renal; from GI50s
Method: as §1, §2

RXF 393 = assay: NCI growth inhibition screen, renal panel; type: cell-based, human; parameters: key: = means equivalent activity; + means that it appears to be significantly better (i.e., by ˜2x); < means it appears to be less active than ET18OCH3 (˜2x); a combination like =/+ or </+ means that activity is dependent upon the isomer; a combination like =/+ or </+ means that activity is dependent upon the isomer; conditions: RXF 393, Renal; from GI50s
Method: as §1, §2

CAK-1 = assay: NCI growth inhibition screen, renal panel; type: cell-based, human; parameters: key: = means equivalent activity; + means that it appears to be significantly better (i.e., by ˜2x); < means it appears to be less active than ET18OCH3 (˜2x); a combination like =/+ or </+ means that activity is dependent upon the isomer; a combination like =/+ or </+ means that activity is dependent upon the isomer; conditions: CAK-1, Renal; from GI50s
Method: as §1, §2

A498 = assay: NCI growth inhibition screen, renal panel; type: cell-based, human; parameters: key: = means equivalent activity; + means that it appears to be significantly better (i.e., by ˜2x); < means it appears to be less active than ET18OCH3 (˜2x); a combination like =/+ or </+ means that activity is dependent upon the isomer; a combination like =/+ or </+ means that activity is dependent upon the isomer; conditions: from GI50s
Method: as §1, §2

TK-10 = assay: NCI growth inhibition screen, renal panel; type: cell-based, human; parameters: key: = means equivalent activity; + means that it appears to be significantly better (i.e., by ˜2x); < means it appears to be less active than ET18OCH3 (˜2x); a combination like =/+ or </+ means that activity is dependent upon the isomer; a combination like =/+ or </+ means that activity is dependent upon the isomer; conditions: TK-10, Renal; from GI50s
Method: as §1, §2

HS 578T = assay: NCI growth inhibition screen, breast panel; type: cell-based, human; parameters: key: = means equivalent activity; + means that it appears to be significantly better (i.e., by ˜2x); < means it appears to be less active than ET18OCH3 (˜2x); a combination like =/+ or </+ means that activity is dependent upon the isomer; a combination like =/+ or </+ means that activity is dependent upon the isomer; conditions: from GI50s
Method: as §1, §2

MDA-MB-231/ATCC = assay: NCI growth inhibition screen, breast panel; type: cell-based, human; parameters: key: = means equivalent activity; + means that it appears to be significantly better (i.e., by ˜2x); < means it appears to be less active than ET18OCH3 (˜2x); a combination like =/+ or </+ means that activity is dependent upon the isomer; a combination like =/+ or </+ means that activity is dependent upon the isomer; conditions: from GI50s
Method: as §1, §2

Structure (SMILES) | H10 [1] | H50 [1] | Performance as compared to ET-18-O—CH3 (MALME-3M) | activity compared to ET-18-OCH3 (in words) (MALME-3M) | Performance as compared to ET-18-O—CH3 (SN12C) | Performance as compared to ET-18-O—CH3 (ACHIN) | Performance as compared to ET-18-O—CH3 (786-0) | Performance as compared to ET-18-O—CH3 (RXF 393) | Performance as compared to ET-18-O—CH3 (CAK-1) | Performance as compared to ET-18-O—CH3 (A498) | Performance as compared to ET-18-O—CH3 (TK-10) | Performance as compared to ET-18-O—CH3 (HS 578T) | Performance as compared to ET-18-O—CH3 (MDA-MB-231/ATCC)
CCCCCCCCCCCCCCCCCCOC[C@@H](COP(=O)([O-])OCC[N+](C)(C)C)OS(C)(=O)=O [1a′S] | 16.5 µM | 21.5 µM | 0 | ET-18-OCH3 was more active | 0 | 0 | 0 | 32 | 0 | 0 | 0 | 0 | 0
CCCCCCCCCCCCCCCCCCOCC(COP(=O)([O-])OCC[N+](C)(C)C)OS(C)(=O)=O (centres unmarked) [Compound 1aR] | 16 µM and 13 µM | 21.5 µM and 17 µM | < | ET-18-OCH3 was more active | = | = | = | = | = | = | = | = | =
